Experiments:
[1] = target: T1, HiBit-BRG1 fusion protein (Homo sapiens, UniProt P51532); assay: HiBiT-BRG1 cell-based degradation assay (Nano-Glo HiBiT Lytic Detection, 24 h); details: HeLa cells expressing HiBit-BRG1 and LgBit; for DC50: read-out: BRG1 HiBit Degradation IC50; for Dmax: HeLa, top dose 30 μM, read-out: BRG1 HiBit Degradation Maximum measured
T1 construct: expressed in transfected cells
Outline: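 Stable HeLa line expressing HiBiT-BRG1 and LgBiT, seeded at 5000 cells/well; luminescence read after lytic Nano-Glo HiBiT reagent and 10 min shaking at RT. % degradation normalised between DMSO (high control) and 2 μM reference BRM/BRG1 degrader (low control).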

HiBit-BRM fusion protein = target: T2, HiBit-BRM fusion protein (Homo sapiens, UniProt P51531); assay: HiBiT-BRM cell-based degradation assay (Nano-Glo HiBiT Lytic Detection, 24 h); details: HeLa cells expressing HiBiT-BRM; for DC50: read-out: BRM HiBit Degradation IC50; for BRM HiBit Degradation Maximum measured: top dose 30 μM
T2 construct: expressed in transfected cells
Outline: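 HeLa cells stably expressing HiBiT-BRM were treated for 24 h with compounds (10-point 3-fold dilutions, 30 μM final top dose, in duplicate). HiBiT was detected by lytic LgBiT complementation luminescence. % degradation was normalized to DMSO (high control) and 2 μM of a reference BRM/BRG1 degrader (low control).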

T1 sequence (P51532 whole entry, the tested form may be a part): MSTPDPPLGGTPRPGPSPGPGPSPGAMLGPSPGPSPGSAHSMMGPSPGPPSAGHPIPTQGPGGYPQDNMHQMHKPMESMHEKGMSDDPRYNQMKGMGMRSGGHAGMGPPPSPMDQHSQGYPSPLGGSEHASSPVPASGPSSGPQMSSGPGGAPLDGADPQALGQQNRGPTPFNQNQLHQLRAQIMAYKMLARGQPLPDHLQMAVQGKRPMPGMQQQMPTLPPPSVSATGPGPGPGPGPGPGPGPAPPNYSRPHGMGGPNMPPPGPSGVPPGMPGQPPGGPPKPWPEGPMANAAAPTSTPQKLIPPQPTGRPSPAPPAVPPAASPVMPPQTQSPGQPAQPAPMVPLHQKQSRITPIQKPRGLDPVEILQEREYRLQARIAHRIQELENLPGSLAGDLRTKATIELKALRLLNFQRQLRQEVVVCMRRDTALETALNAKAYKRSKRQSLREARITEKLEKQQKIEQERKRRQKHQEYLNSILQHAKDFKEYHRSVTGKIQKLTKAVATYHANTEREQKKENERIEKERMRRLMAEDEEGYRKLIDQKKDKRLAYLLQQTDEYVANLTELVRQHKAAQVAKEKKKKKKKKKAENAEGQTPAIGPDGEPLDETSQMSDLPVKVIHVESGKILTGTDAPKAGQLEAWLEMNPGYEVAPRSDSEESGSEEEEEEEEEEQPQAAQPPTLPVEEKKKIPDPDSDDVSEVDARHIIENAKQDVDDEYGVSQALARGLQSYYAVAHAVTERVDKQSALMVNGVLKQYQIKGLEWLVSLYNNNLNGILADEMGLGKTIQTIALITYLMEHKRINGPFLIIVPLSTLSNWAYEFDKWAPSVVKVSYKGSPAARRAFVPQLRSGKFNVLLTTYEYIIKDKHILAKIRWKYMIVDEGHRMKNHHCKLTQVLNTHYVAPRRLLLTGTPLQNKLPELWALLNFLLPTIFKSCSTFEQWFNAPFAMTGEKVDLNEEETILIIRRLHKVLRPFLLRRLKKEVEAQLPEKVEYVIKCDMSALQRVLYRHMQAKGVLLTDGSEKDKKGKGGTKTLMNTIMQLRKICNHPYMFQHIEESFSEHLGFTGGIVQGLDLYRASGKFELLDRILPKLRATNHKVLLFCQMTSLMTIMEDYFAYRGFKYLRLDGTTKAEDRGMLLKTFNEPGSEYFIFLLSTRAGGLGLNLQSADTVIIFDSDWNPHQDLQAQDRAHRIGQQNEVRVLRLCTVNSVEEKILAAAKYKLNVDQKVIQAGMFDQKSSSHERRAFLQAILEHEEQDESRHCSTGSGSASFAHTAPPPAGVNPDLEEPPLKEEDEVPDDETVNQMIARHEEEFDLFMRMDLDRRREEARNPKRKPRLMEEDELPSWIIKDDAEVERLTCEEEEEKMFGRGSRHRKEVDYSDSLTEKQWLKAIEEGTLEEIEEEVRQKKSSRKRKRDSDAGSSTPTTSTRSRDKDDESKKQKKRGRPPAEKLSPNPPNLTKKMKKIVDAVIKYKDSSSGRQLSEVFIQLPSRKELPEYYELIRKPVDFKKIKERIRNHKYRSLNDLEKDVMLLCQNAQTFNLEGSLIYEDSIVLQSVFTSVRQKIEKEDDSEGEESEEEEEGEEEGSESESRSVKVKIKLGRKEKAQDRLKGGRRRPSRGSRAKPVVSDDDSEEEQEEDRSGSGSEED
T2 sequence (P51531 whole entry, the tested form may be a part): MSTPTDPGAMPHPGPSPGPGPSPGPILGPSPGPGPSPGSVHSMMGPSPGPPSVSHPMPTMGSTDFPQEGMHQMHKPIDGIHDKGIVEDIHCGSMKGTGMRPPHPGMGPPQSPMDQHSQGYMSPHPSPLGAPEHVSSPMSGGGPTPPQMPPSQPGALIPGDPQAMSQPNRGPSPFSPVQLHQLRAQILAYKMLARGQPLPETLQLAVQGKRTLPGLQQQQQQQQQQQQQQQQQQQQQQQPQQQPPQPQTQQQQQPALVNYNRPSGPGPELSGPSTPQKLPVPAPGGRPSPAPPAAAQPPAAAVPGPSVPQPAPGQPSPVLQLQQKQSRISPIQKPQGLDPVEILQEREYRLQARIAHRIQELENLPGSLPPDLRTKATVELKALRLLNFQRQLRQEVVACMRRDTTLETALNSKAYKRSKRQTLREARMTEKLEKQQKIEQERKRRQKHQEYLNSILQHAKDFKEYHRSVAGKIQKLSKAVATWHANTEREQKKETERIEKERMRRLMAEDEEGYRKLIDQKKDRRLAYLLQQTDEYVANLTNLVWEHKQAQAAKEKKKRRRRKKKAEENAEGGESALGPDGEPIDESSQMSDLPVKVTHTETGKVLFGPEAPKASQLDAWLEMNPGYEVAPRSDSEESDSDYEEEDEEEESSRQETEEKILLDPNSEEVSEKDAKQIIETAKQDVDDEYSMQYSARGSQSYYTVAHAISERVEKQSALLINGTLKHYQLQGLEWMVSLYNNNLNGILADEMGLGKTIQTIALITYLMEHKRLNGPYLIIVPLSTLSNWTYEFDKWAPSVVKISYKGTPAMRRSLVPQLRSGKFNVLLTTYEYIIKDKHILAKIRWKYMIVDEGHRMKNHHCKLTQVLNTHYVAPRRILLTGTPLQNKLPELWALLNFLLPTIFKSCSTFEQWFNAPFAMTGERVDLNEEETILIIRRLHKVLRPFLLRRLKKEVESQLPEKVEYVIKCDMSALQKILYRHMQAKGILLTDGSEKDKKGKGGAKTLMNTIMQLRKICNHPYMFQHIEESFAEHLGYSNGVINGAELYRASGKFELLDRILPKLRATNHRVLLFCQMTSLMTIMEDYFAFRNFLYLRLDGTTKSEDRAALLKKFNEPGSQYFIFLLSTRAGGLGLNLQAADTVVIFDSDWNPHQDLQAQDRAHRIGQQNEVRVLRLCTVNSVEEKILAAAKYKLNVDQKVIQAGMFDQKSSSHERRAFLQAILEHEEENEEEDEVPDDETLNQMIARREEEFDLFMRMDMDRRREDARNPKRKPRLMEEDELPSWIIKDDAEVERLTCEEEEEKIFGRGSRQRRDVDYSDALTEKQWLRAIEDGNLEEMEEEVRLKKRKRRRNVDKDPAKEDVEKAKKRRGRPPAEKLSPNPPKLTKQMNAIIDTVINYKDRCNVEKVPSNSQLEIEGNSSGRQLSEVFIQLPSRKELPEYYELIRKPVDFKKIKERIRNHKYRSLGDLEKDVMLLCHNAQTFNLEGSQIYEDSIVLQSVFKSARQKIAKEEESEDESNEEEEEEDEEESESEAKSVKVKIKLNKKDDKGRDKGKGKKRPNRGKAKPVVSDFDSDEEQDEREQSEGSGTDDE

DC50 [1] | Dmax [1] | DC50 (HiBit-BRM fusion protein) | BRM HiBit Degradation Maximum measured (HiBit-BRM fusion protein) | SMILES
> 10 µM | < 50% | > 10 µM | C (‘C’ = Maximum degradation <50%) | Cc1ncsc1-c1ccc(CNC(=O)[C@@H]2C[C@@H](O)CN2C(=O)[C@@H](NC(=O)CCCCC(=O)NCCCC[C@H](NC(=O)c2ccn(S(C)(=O)=O)c2)C(=O)Nc2nc(-c3ccccc3)cs2)C(C)(C)C)cc1 [Compound 264, N-[(2S)-1-[(2S,4R)-4-hydroxy-2-([[4-(4-methyl-1,3-thiazol-5-yl)phenyl]methyl]carbamoyl)pyrrolidin-1-yl]-3,3-dimethyl-1-oxobutan-2-yl]-N-[(5S)-5-[(1-methanesulfonylpyrrol-3-yl)formamido]-5-[(4-phenyl-1,3-thiazol-2-yl)carbamoyl]pentyl]hexanediamide]
> 10 µM | < 50% | > 10 µM | C (‘C’ = Maximum degradation <50%) | Cc1ncsc1-c1ccc(CNC(=O)[C@@H]2C[C@@H](O)CN2C(=O)[C@@H](NC(=O)CCCCCCC(=O)NCCCC[C@H](NC(=O)c2ccn(S(C)(=O)=O)c2)C(=O)Nc2nc(-c3ccccc3)cs2)C(C)(C)C)cc1 [Compound 266, N′-[(2S)-1-[(2S,4R)-4-hydroxy-2-([[4-(4-methyl-1,3-thiazol-5-yl)phenyl]methyl]carbamoyl)pyrrolidin-1-yl]-3,3-dimethyl-1-oxobutan-2-yl]-N-[(5S)-5-[(1-methanesulfonylpyrrol-3-yl)formamido]-5-[(4-phenyl-1,3-thiazol-2-yl)carbamoyl]pentyl]octanediamide]
> 10 µM | < 50% | > 10 µM | C (‘C’ = Maximum degradation <50%) | Cc1ncsc1-c1ccc(CNC(=O)[C@@H]2C[C@@H](O)CN2C(=O)[C@@H](NC(=O)CCCCCCCCC(=O)NCCCC[C@H](NC(=O)c2ccn(S(C)(=O)=O)c2)C(=O)Nc2nc(-c3ccccc3)cs2)C(C)(C)C)cc1 [Compound 268]
> 10 µM | < 50% | > 10 µM | C (‘C’ = Maximum degradation <50%) | CS(=O)(=O)n1ccc(C(=O)N[C@@H](CCCCNC(=O)C2CCN(CCOc3ccc4c(c3)C(=O)N(C3CCC(=O)NC3=O)C4=O)CC2)C(=O)Nc2nc(-c3ccccc3)cs2)c1 (stereo partly shown) [Compound 269]

Second part, the compound before the results:

SMILES | DC50 [1] | Dmax [1] | DC50 (HiBit-BRM fusion protein) | BRM HiBit Degradation Maximum measured (HiBit-BRM fusion protein)
CS(=O)(=O)n1ccc(C(=O)N[C@@H](CCOCCCC(=O)N2CCN(CCCC#Cc3ccc4c(c3)C(=O)N(C3CCC(=O)NC3=O)C4=O)CC2)C(=O)Nc2nc(-c3ccccc3)cs2)c1 (stereo partly drawn) [Compound 263, (2S)-4-[4-(4-[5-[2-(2,6-dioxopiperidin-3-yl)-1,3-dioxoisoindol-5-yl]pent-4-yn-1-yl]piperazin-1-yl)-4-oxobutoxy]-2-[(1-methanesulfonylpyrrol-3-yl)formamido]-N-(4-phenyl-1,3-thiazol-2-yl)butanamide; formic acid] | > 10 µM | < 50% | > 10 µM | C (‘C’ = Maximum degradation <50%)
Cc1ncsc1-c1ccc(CNC(=O)[C@@H]2C[C@@H](O)CN2C(=O)[C@@H](NC(=O)CCCCCCCCCCC(=O)NCCCC[C@H](NC(=O)c2ccn(S(C)(=O)=O)c2)C(=O)Nc2nc(-c3ccccc3)cs2)C(C)(C)C)cc1 [Compound 265] | > 10 µM | < 50% | > 10 µM | C (‘C’ = Maximum degradation <50%)
Cc1ncsc1-c1ccc(CNC(=O)[C@@H]2C[C@@H](O)CN2C(=O)[C@@H](NC(=O)CCCCCCCCCCCCC(=O)NCCCC[C@H](NC(=O)c2ccn(S(C)(=O)=O)c2)C(=O)Nc2nc(-c3ccccc3)cs2)C(C)(C)C)cc1 [Compound 267, N-[(2S)-1-[(2S,4R)-4-hydroxy-2-([[4-(4-methyl-1,3-thiazol-5-yl)phenyl]methyl]carbamoyl)pyrrolidin-1-yl]-3,3-dimethyl-1-oxobutan-2-yl]-N-[(5S)-5-[(1-methanesulf-onylpyrrol-3-yl)formamido]-5-[(4-phenyl-1,3-thiazol-2-yl)carbamoyl]pentyl]tetradecanediamide] | > 10 µM | < 50% | > 10 µM | C (‘C’ = Maximum degradation <50%)

Reference: patent publication US12662479B2 (Foghorn Therapeutics Inc., priority 2020, dated 2026)
